For this assay, the system named is Plasmodium falciparum 3D7 strain. As to the kind of experiment: P. falciparum 3D7 asexual blood stage assay (SYBR green readout). Type of assay: cell-based. The source says: The compounds of the present invention are potent inhibitors of the growth and propagation of the Plasmodium falciparum parasite in human blood.
The assay used to measure the effect of test compounds on a bloodstream stage of Plasmodium falciparum 3D7 strain employs SYBR green as the readout. This is a dye that binds to double stranded deoxyribonucleic acid (DNA) with a resulting increase in fluorescence, allowing detection of P. falciparum DNA in infected erythrocytes, and thereby providing a measure of parasite growth and propagation.
Erythrocytes (A+ blood) were prepared for both parasite culture and assay by washing 4 times with incomplete media (15.9 g RPMI 1640 (25 mM HEPES, L-glutamine), 1 g NaHCO3, 2 g glucose, 400 μL gentacin (500 mg/mL), 2 mL hypoxanthine solution (13.6 g/L in 0.1M NaOH pH 7.3) in 1 litre of media). The cells were centrifuged at 1800 g for 5 minutes, before decanting the supernatant and re-suspending in fresh incomplete media. On the final wash, the cells were re-suspended in complete media (incomplete media with 5 g/L AlbumaxII), and centrifuged at 1800 g for 3 minutes. This cell sediment was treated as 100% haematocrit.
P. falciparum 3D7 was cultured in erythrocytes at 5% haematocrit in complete media at 37° C. (1% O2, 3% CO2, balance N2). […]
On day 5, fluorescent signal was measured using a BioTek plate reader (excitation 485 nm, emission 528 nm). […]

Counter-ions that a name gives are not always drawn. Like-named read-outs stand apart in the source and are kept apart here.

For two compounds, IC50 results are on record in patent US20250034118A1, “ANTIMALARIAL HEXAHYDROPYRIMIDINE DERIVATIVES” (UCB BIOPHARMA SRL, priority 2021, published 2025).

For the compound `C[C@@H]1C[C@H](N2C(=N)N[C@](C)(c3cccc(NC(=O)c4cncn4CC(F)(F)F)c3Cl)CC2=O)CCC1(F)F` [Example 1, N-(2-Chloro-3-{(4S)-1-[(1R,3R)-4,4-difluoro-3-methylcyclohexyl]-2-imino-4-methyl-6-oxohexahydropyrimidin-4-yl}phenyl)-3-(2,2,2-trifluoroethyl)imidazole-4-carboxamide], the half-maximal inhibitory concentration (IC50) (Erythrocyte, P. falciparum 3D7 in erythrocytes, 5% haematocrit, 0.5% parasitaemia, 72 h incubation, SYBR green fluorescence, read-out: IC50) was determined as 5 nM. The compound `CO[C@H]1C[C@@H](N2C(=N)N[C@](C)(c3cccc(NC(=O)c4cncn4CC(F)(F)F)c3Cl)CC2=O)CCC1(F)F` (relative stereo) [Example 2, N-(2-Chloro-3-{(4S)-1-[(1S*, 3S*)-4,4-difluoro-3-methoxycyclohexyl]-2-imino-4-methyl-6-oxohexahydropyrimidin-4-yl}phenyl)-3-(2,2,2-trifluoroethyl)imidazole-4-carboxamide hydrochloride] came in with an IC50 (3D7, Erythrocyte, 72 h) of 4.2 nM.

Usually IC50 stands for the concentration at which inhibition is half-maximal.
